These results are taken from paper PMC12114461, “A Natural Inhibitor, 1′S-1′-Acetoxychavicol Acetate, Against Testosterone-Induced Alopecia via NADPH Oxidase Regulation” (Molecules, 2025).

pIC50: −log10 of the molar value.

Type in all cases: biochemical
One experiment concerns the target T1, Nox2 (hNox2) (Homo sapiens, UniProt P04839).
T1 construct: gene CYBB; membranes from transgenic Drosophila (Duox knockdown) over-expressing human Nox2
T1 sequence (P04839 2-570): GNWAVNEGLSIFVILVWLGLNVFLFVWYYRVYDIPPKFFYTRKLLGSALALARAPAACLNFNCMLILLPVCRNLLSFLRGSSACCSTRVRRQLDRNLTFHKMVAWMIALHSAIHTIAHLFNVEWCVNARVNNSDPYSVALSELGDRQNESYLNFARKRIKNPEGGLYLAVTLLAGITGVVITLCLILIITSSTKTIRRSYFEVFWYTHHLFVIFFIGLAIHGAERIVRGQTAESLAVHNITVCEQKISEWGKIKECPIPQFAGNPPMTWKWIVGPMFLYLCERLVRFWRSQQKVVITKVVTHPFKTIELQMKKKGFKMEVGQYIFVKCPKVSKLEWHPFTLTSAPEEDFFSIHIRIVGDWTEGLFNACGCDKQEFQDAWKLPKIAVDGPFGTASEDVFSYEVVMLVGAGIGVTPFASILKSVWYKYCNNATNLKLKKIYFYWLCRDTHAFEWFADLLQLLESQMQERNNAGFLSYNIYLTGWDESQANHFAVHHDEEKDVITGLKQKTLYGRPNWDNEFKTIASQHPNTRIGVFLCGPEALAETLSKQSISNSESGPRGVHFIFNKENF
Briefly: lucigenin chemiluminescence ROS assay in Drosophila membranes expressing hNox2.

The next experiment concerns the target T2, Nox1 (hNox1) (Homo sapiens, UniProt Q9Y5S8).
T2 construct: membranes from transgenic Drosophila (Duox knockdown) over-expressing human Nox1
T2 sequence (Q9Y5S8 1-564): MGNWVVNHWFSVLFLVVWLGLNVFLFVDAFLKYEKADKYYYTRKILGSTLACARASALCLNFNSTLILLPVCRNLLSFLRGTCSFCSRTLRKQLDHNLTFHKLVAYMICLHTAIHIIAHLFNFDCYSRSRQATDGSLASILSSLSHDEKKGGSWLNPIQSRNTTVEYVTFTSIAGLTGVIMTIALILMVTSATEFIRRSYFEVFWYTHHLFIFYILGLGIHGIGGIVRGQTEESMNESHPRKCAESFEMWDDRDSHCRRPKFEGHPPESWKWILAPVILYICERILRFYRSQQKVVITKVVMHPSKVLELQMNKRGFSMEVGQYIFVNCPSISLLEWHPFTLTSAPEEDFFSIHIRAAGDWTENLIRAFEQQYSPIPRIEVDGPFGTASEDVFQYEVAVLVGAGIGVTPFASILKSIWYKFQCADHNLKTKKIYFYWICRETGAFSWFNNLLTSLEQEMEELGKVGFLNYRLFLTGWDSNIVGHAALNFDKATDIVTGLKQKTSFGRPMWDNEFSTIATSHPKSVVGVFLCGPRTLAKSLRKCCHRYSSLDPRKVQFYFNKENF
Briefly: lucigenin chemiluminescence ROS assay in Drosophila membranes expressing hNox1.

Another experiment concerns the target T3, Nox4 (hNox4) (Homo sapiens, UniProt Q9NPH5).
T3 construct: membranes from transgenic Drosophila (Duox knockdown) over-expressing human Nox4
T3 sequence (Q9NPH5 1-578): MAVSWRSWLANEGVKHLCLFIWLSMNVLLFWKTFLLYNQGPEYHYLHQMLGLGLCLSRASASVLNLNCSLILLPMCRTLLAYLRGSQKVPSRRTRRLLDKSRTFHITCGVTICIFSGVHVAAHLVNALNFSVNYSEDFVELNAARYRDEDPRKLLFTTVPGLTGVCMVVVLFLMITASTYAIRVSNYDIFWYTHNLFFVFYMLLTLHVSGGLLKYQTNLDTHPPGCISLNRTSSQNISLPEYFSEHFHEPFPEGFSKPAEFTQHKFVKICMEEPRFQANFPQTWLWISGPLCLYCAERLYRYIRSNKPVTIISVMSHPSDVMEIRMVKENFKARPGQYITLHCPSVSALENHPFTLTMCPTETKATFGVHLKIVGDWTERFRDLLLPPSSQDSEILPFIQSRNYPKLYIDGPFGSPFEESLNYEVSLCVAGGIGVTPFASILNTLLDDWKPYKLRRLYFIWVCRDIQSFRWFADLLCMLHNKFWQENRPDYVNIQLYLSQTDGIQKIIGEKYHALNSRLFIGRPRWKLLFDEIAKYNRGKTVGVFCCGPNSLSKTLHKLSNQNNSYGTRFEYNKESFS
As to the kind of experiment: lucigenin chemiluminescence ROS assay in Drosophila membranes expressing hNox4.

For the next experiment, the target named is T4, Duox1 (hDuox1) (Homo sapiens, UniProt Q9NRD9).
T4 construct: membranes from transgenic Drosophila (Duox knockdown) over-expressing human Duox1
Briefly: lucigenin chemiluminescence ROS assay in Drosophila membranes expressing hDuox1.

Broadly, the pIC50 is −log10 of the IC50, conventionally taken in molar units. Higher therefore signals a small IC50.

T4 sequence (Q9NRD9 22-1551): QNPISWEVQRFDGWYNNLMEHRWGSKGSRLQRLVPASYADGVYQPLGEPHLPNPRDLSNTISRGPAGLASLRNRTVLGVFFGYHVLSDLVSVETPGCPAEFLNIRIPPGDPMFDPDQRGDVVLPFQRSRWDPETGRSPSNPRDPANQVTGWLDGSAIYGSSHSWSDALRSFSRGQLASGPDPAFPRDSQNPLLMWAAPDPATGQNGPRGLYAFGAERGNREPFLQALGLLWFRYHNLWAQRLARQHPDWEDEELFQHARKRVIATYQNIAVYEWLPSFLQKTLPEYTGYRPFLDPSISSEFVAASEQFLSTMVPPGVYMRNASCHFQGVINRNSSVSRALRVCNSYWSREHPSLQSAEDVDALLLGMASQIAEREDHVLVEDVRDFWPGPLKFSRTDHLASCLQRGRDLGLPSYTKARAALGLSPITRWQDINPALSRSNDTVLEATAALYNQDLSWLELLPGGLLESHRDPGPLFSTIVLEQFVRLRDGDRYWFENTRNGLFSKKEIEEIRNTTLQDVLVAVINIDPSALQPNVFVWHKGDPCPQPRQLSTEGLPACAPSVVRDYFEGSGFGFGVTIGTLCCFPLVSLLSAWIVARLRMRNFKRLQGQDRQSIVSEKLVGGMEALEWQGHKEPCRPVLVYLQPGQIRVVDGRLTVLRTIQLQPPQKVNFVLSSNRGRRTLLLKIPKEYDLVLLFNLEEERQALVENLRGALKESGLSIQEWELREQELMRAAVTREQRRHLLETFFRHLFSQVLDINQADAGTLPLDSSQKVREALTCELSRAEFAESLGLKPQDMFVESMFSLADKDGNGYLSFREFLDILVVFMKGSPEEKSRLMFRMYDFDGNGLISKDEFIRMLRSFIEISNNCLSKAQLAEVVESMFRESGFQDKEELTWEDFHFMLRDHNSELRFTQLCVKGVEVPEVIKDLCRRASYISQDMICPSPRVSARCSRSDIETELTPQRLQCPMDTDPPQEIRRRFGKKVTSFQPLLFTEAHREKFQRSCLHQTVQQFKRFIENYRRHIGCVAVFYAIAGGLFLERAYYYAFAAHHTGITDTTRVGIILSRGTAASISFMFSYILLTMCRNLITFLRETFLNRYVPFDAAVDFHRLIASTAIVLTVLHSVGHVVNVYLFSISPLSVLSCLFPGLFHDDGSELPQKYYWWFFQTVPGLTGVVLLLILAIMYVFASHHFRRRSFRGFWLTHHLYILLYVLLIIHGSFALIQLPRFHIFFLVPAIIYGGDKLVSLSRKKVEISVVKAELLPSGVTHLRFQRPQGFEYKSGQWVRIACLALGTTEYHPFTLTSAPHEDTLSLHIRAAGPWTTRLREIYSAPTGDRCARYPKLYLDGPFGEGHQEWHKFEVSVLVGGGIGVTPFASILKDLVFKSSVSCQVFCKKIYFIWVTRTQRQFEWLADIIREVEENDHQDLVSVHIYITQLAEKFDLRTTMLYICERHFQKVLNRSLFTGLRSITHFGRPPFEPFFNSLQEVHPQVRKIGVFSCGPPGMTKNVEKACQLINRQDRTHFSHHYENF

Consider `C=C[C@H](OC(C)=O)c1ccc(OC(C)=O)cc1` [compound 26, 1′S-1′-acetoxychavicol acetate], for which the pIC50 against Nox2 (hNox2) was 4.37; against Nox1 (hNox1), 4.49; at Nox4 (hNox4), 4.50; against Duox1 (hDuox1), 4.51.
